Results from patent US20110318741A1, “BIOMARKERS FOR THE TREATMENT OF PSORIASIS” (priority 2010, published 2011).

Test system: psoriasis lesional skin
Experiment: Histological analysis (immunohistochemistry, H&E) of skin biopsies from psoriasis patients in a clinical trial
Assay type: in vivo, human
Details: for CD56 in Epidermis: Biopsy Parameters Median Change (%) / Langerin in Dermis: Biopsy Parameters Median Change (%) / CD11c in Epidermis: Biopsy Parameters Median Change (%) / CD3 in Dermis: Biopsy Parameters Median Change (%) / CD3 in Epidermis: Biopsy Parameters Median Change (%) / Thickness: Biopsy Parameters Median Change (%) / CD11c in Dermis: Biopsy Parameters Median Change (%) / CD56 in Dermis: Biopsy Parameters Median Change (%) / Langerin in Epidermis: Biopsy Parameters Median Change (%): subjects also with PASI values
Description: Skin biopsies were evaluated on 20 patients in a clinical trial, where 20 mg of (S)—N-(2-(1-(3-ethoxy-4-methoxyphenyl)-2-(methylsulfonyl)ethyl)-1,3-dioxoisoindolin-4-yl)acetamide was administered b.i.d. to patients with psoriasis. Skin biopsies were done 4 weeks and 12 weeks post-treatment.
The biopsies were subjected to a histological analysis in which response was assessed in H&E stained sections of skin biopsies and after staining frozen sections of skin biopsies with antibodies to keratin 16. CD3, CD11c. ICAM-1. Langerin, CD56, Foxp3, and HLA-DR. This analysis thus included an assessment of epidermal growth/differentiation, skin infiltration by T-cells and DC subsets, presence of regulatory T-cells, and presence of inflammation-regulating molecules in skin lesions.
The pharmacodynamic effects of (S)—N-(2-(1-(3-ethoxy-4-methoxyphenyl)-2-(methylsulfonyl)ethyl)-1,3-dioxoisoindolin-4-yl)acetamide were studied in skin biopsies from subjects treated with the compound in a phase 2, multi-center, open-label study evaluating the safety, tolerability, and efficacy of the compound in recalcitrant psoriasis vulgaris. Skin biopsies were taken from uninvolved and involved skin at baseline, and from involved skin after treatment with (S)—N-(2-(1-(3-ethoxy-4-methoxyphenyl)-2-(methylsulfonyl)ethyl)-1,3-dioxoisoindolin-4-yl)acetamide 20 mg BID after 4 and 12 weeks.
Skin biopsies were evaluated on 20 patients in this trial. The biopsies were analyzed by immunohistochemistry for a set of cellular markers (keratin 16, CD3. CD11c. ICAM-1, Langerin, CD56, Foxp3, and HLA-DR) to assess epidermal growth/differentiation, skin infiltration by T-cells and dendritic cells (DC), presence of regulatory T-cells, and the presence of inflammation-regulating molecules in skin lesions.

SMILES: CCOc1cc([C@@H](CS(C)(=O)=O)N2C(=O)c3cccc(NC(C)=O)c3C2=O)ccc1OC [(S)—N-(2-(1-(3-ethoxy-4-methoxyphenyl)-2-(methylsulfonyl)ethyl)-1,3-dioxoisoindolin-4-yl)acetamide]
- CD3+ T cells in the epidermis and dermis (20 mg BID): significant reductions
- CD56+ NK cells in the epidermis (20 mg BID): significant reductions
- CD56 in Epidermis: Biopsy Parameters Median Change (%) (Week 4, 20 mg BID, No. 16): −75.6%
- Langerin in Dermis: Biopsy Parameters Median Change (%) (Week 4, 20 mg BID, No. 17): −50.0%
- CD11c in Epidermis: Biopsy Parameters Median Change (%) (Week 4, 20 mg BID, No. 18): −73.1%
- CD3 in Dermis: Biopsy Parameters Median Change (%) (Week 4, 20 mg BID, No. 19): −24.5%
- CD3 in Epidermis: Biopsy Parameters Median Change (%) (Week 4, 20 mg BID, No. 19): −35.0%
- Thickness: Biopsy Parameters Median Change (%) (Week 4, 20 mg BID, No. 19): −22.9%
- CD11c in Dermis: Biopsy Parameters Median Change (%) (Week 4, 20 mg BID, No. 20): −45.8%
- CD56 in Dermis: Biopsy Parameters Median Change (%) (Week 4, 20 mg BID, No. 20): −27.6%
- Langerin in Epidermis: Biopsy Parameters Median Change (%) (Week 4, 20 mg BID, No. 20): 9.49%
- CD3 T cells in Dermis: Median % change from baseline (Week 4, 20 mg b.i.d.): −24.5%
- CD3 T cells in Epidermis: Median % change from baseline (Week 4, 20 mg b.i.d.): −35.0%
- CD11c myeloid DC in Dermis: Median % change from baseline (Week 4, 20 mg b.i.d.): −45.8%
- CD11c myeloid DC in Epidermis: Median % change from baseline (Week 4, 20 mg b.i.d.): −73.1%
- CD56 NK cells in Dermis: Median % change from baseline (Week 4, 20 mg b.i.d.): −27.6%
- CD56 NK cells in Epidermis: Median % change from baseline (Week 4, 20 mg b.i.d.): −75.6%
- Epidermal Thickness: Median % change from baseline (Week 4, 20 mg b.i.d.): −22.9%
- Langerin in Dermis: Median % change from baseline (Week 4, 20 mg b.i.d.): −50.0%
- Langerin in Epidermis: Median % change from baseline (Week 4, 20 mg b.i.d.): 9.5%
- reduction of epidermal CD11c+ infiltrates (Week 4, 20 mg b.i.d.): 73%
- CD56 in Epidermis: Biopsy Parameters Median Change (%) (Week 12, 20 mg BID, No. 12): −77.6%
- Langerin in Dermis: Biopsy Parameters Median Change (%) (Week 12, 20 mg BID, No. 12): −67.0%
- CD11c in Epidermis: Biopsy Parameters Median Change (%) (Week 12, 20 mg BID, No. 13): −97.5%
- CD11c in Dermis: Biopsy Parameters Median Change (%) (Week 12, 20 mg BID, No. 14): −56.0%
- Thickness: Biopsy Parameters Median Change (%) (Week 12, 20 mg BID, No. 14): −34.8%
- CD3 in Dermis: Biopsy Parameters Median Change (%) (Week 12, 20 mg BID, No. 15): −63.1%
- CD3 in Epidermis: Biopsy Parameters Median Change (%) (Week 12, 20 mg BID, No. 15): −56.1%
- CD56 in Dermis: Biopsy Parameters Median Change (%) (Week 12, 20 mg BID, No. 15): −18.2%
- Langerin in Epidermis: Biopsy Parameters Median Change (%) (Week 12, 20 mg BID, No. 15): 41.67%
- CD3 T cells in Dermis: Median % change from baseline (Week 12, 20 mg b.i.d.): −62.0%
- CD3 T cells in Epidermis: Median % change from baseline (Week 12, 20 mg b.i.d.): −47.4%
- CD11c myeloid DC in Dermis: Median % change from baseline (Week 12, 20 mg b.i.d.): −54.6%
- CD11c myeloid DC in Epidermis: Median % change from baseline (Week 12, 20 mg b.i.d.): −88.6%
- CD56 NK cells in Dermis: Median % change from baseline (Week 12, 20 mg b.i.d.): −12.5%
- CD56 NK cells in Epidermis: Median % change from baseline (Week 12, 20 mg b.i.d.): −73.3%
- Epidermal Thickness: Median % change from baseline (Week 12, 20 mg b.i.d.): −34.3%
- Langerin in Dermis: Median % change from baseline (Week 12, 20 mg b.i.d.): −57.9%
- Langerin in Epidermis: Median % change from baseline (Week 12, 20 mg b.i.d.): 17.1%
- reduction of epidermal CD11c+ infiltrates (Week 12, 20 mg b.i.d.): 84%
- cases showing improvement in psoriasis (reduction in epidermal hyperplasia and/or keratin 16 staining) (day 29, of the 20 cases analyzed, 20 mg b.i.d.): 10 cases
- T-cells in biopsies (day 29 and day 85 biopsies, overall reductions not statistically significant): reductions
- median reduction in epidermal thickness (day 85, 20 mg b.i.d.): 34%
- epidermal Langerhan's cells (day 85 biopsies): small increase
- cases showing absence of keratin 16 staining (day 85 biopsies, 20 mg b.i.d.): 5 cases
- cases showing disease improvement (day 85 biopsies, of the 20 cases analyzed, 20 mg b.i.d.): Nine
- CD56+ cells (NK cells or NK-T-cells) (during treatment, between week 4 and week 12): minimally altered
- inflammatory myeloid CD11c+ DCs (TIP-DCs) (epidermis and dermis, week 4 and week 12, 20 mg BID): major reduction
- Langerin in the epidermis (not statistically significant, not elevated in the dermis, 20 mg BID): slightly elevated
- reductions in cellular infiltrates in epidermis and dermis, responders vs non-responders (responders: change in PASI of 75% or more at week 12): greater among responders
- reduction in epidermal thickness (week 4, all measured values of thickness, 20 mg b.i.d.): 23%
- median reduction of dermal CD11c+ DCs (week 4 biopsies, 20 mg b.i.d.): 45%
